“And” between values parts separate entries of the source, which are not always exact repeats. Equal values may be shown once. *1 amine or outer side, *2 acyl side, *3 side chain or, on linkers, in order; H or OH if unused. Side-chain parts run from the residue outwards. [ ]: non-standard residue; d: D form. The star is where a group is joined. C20 diacid = O=C(O)CCCCCCCCCCCCCCCCCCC(=O)*; γGlu = O=C(O)[C@H](CCC(=O)[*:2])N[*:1]; εLys = N[C@@H](CCCCN[*:1])C(=O)[*:2]; pGlu = O=C1CC[C@@H](C(=O)O)N1; αMeL = CC(C)C[C@](C)(N)C(=O)O; AEEA = NCCOCCOCC(=O)O; Aib = CC(C)(N)C(=O)O
Key:
[1] = Pharmacokinetics in Yucatan mini-pigs, single subcutaneous or intravenous dose; type: in vivo
Method: (§1) Plasma concentrations of compounds were determined by LC/MS methods. For each assay, the compound and an internal standard (IS), were extracted from 100% mouse, rat, pig, or monkey plasma (70 μL) using Isopropanol-Methanol. Two distinct layers were formed upon centrifugation with the compound and the IS located in the supernatant layer. An aliquot of the supernatant (150 μL) was transferred to a Waters Sirocco Protein Precipitation Plate. The supernatant was eluted using a positive pressure manifold. The supernatant was mixed with 100-2 Water-Formic acid (400 μL) in a pretreated Sep-Pak tC18 SPE plate and eluted to waste. The peptide and IS were eluted with Acetonitrile-Formic acid (100 μL) in 2 steps (50 μL each step). The elution (40 μL) from SPE plate was mixed with diluent solution (1.875 μL 5× invitrosol and 3.125 μL 1% formic acid in water, 80 μL). A final sample (10 μl) was loaded onto a Xselect CSH C18 IS column (3.5 μm 2.1×20 mm). The column effluent was directed into a Thermo Fisher Scientific Orbitrap (Exploris 240) mass spectrometer for detection and quantitation.
Male Yucatan mini-pigs were administered a single subcutaneous dose or intravenous dose (19 or 99 nmol/kg) of compound in 40 mM Tris-HCl 5% D-mannitol (pH 8) at a volume of 0.01 or 0.05 mL/kg. Blood was collected from each animal at 0.083 (IV only), 0.5, 3, 6, 24, 48, 72, 96, 168, 240, 336, 408, and 504 hours postdose for pharmacokinetic characterization.

[2] = Pharmacokinetics in Sprague Dawley rats, single subcutaneous or intravenous dose (incl. 10, 30, 100 nmol/kg dose response); type: in vivo
[3] = Pharmacokinetics in CD-1 mice, single 100 nmol/kg subcutaneous dose; type: in vivo; details: mouse, plasma, sc, male CD-1 mice, mean
Method: as §1
Male CD-1 mice were administered a single subcutaneous dose (100 nmol/kg) of compound in 40 mM Tris-HCl 5% D-mannitol (pH 8) at a volume of 5 mL/kg. Blood was collected at 6, 24, 48, 96, 168, 240, 288, and 336 hours postdose for pharmacokinetic characterization.

[4] = tested on: MHC-II presented peptides on human dendritic cells; assay: MAPPS assay (MHC-Associated Peptide Proteomics); type: cell-based
Method in brief: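 Peptides eluted from anti-MHC-II immunoprecipitates of day-6 DC lysates were sequenced by MS, mapped onto the parent test molecule, and scored as percentage of donors presenting each region. DCs derived from donor CD14+ cells (IL-4, GM-CSF) received test molecules on day 4, then LPS maturation on day 5.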

[5] = male Yucatan pigs, single subcutaneous dose 18 nmol/kg, individual animal
[6] = male, Yucatan mini-pig, minipig, plasma, iv, 18 nmol/kg, single intravenous dose 18 nmol/kg, individual animal
[7] = male, Yucatan mini-pig, minipig, plasma, iv, 18 nmol/kg, single intravenous dose 18 nmol/kg, mean
[8] = single intravenous dose 18 nmol/kg, male Yucatan pigs, individual animal
[9] = dose response, single subcutaneous dose 10 nmol/kg, male Sprague Dawley rats, individual animal
[10] = dose response, single subcutaneous dose 30 nmol/kg, male Sprague Dawley rats, individual animal
[11] = dose response, single subcutaneous dose 100 nmol/kg, male Sprague Dawley rats, individual animal
[12] = male Sprague Dawley rats, single intravenous dose 183 nmol/kg, individual animal
[13] = male, Sprague Dawley, rat, plasma, iv, 183 nmol/kg, single intravenous dose 183 nmol/kg, Mean
[14] = male, Sprague Dawley, rat, plasma, iv, 183 nmol/kg, single intravenous dose 183 nmol/kg, individual animal
[15] = single subcutaneous dose 183 nmol/kg, male Sprague Dawley rats, individual animal

[pGlu]GSPSGIVTS[αMeL]DVPT[Aib][αMeL]LQKILEQERAEKARQQAK([γGlu-AEEA-εLys-C20 diacid])EAAEILAQV-NH2 [SEQ ID NO: 22, Pyr-GSPSGIVTS αMeL DVPT Aib αMeL LQKILEQERAEKARQQAK(γE-(2-[2-(2-Amino-ethoxy)-ethoxy]-acetyl)-ϵK-CO-(CH2)18-CO2H)EAAEILAQV-NH2]
AUC0-inf ([1]; Yucatan mini-pig, minipig, plasma, sc, male Yucatan pigs, single subcutaneous dose 18 nmol/kg, Mean, read-out: AUC0-inf): 22.5 µM·h | Cmax ([1]; Yucatan mini-pig, minipig, plasma, sc, male Yucatan pigs, single subcutaneous dose 18 nmol/kg, Mean, read-out: Cmax): 154 nM | AUC0-inf [1, 5]: 23.9 µM·h and 21 µM·h | CL/F [1, 5]: 0.886 mL/h/kg | Cmax [1, 5]: 165 nM and 143 nM | T1/2 [1, 5]: 85.8 h | Tmax [1, 5]: 6.0 h | clearance [1, 6]: 0.82 mL/h/kg | half-life [1, 6]: 90.1 h | clearance [1, 7]: 0.733 mL/h/kg | half-life [1, 7]: 95.6 h | half-life ([1]; male, Yucatan mini-pig, minipig, plasma, sc, 18 nmol/kg, single subcutaneous dose 18 nmol/kg, Mean): 82.5 h | CL/F ([1]; male, Yucatan mini-pig, minipig, plasma, sc, 18 nmol/kg, single subcutaneous dose 18 nmol/kg, Mean, read-out: CL/F (converted)): 0.832 mL/h/kg | Tmax ([1]; male, Yucatan mini-pig, minipig, plasma, sc, 18 nmol/kg, single subcutaneous dose 18 nmol/kg, Mean, read-out: Tmax): 15 h | half-life ([1]; male, Yucatan mini-pig, minipig, plasma, sc, 18 nmol/kg, single subcutaneous dose 18 nmol/kg, individual animal): 79.1 h | CL/F ([1]; male, Yucatan mini-pig, minipig, plasma, sc, 18 nmol/kg, single subcutaneous dose 18 nmol/kg, individual animal, read-out: CL/F (converted)): 0.777 mL/h/kg | AUC0-inf ([1]; minipig, plasma, single intravenous dose 18 nmol/kg, male Yucatan pigs, mean, read-out: AUC0-inf): 25.3 µM·h | C0 ([1]; minipig, plasma, single intravenous dose 18 nmol/kg, male Yucatan pigs, mean, read-out: C0): 418 nM | AUC0-inf [1, 8]: 22.3 µM·h and 28.3 µM·h | C0 [1, 8]: 373 nM and 462 nM | CL [1, 8]: 0.646 mL/h/kg | T1/2 [1, 8]: 101 h | AUC0-inf [2, 9]: 2.73 µM·h and 2.81 µM·h and 3.02 µM·h | CL/F [2, 9]: 3.60 mL/h/kg and 3.54 mL/h/kg | Cmax [2, 9]: 49.5 nM and 51.3 nM and 48.6 nM | T1/2 [2, 9]: 23.1 h and 41.5 h | AUC0-inf [2, 10]: 7.52 µM·h and 8.6 µM·h and 7.16 µM·h | CL/F [2, 10]: 3.62 mL/h/kg and 4.25 mL/h/kg | Cmax [2, 10]: 126 nM and 132 nM and 128 nM | T1/2 [2, 10]: 33.6 h and 24.1 h | AUC0-inf [2, 11]: 26.7 µM·h and 26 µM·h and 26.3 µM·h | CL/F [2, 11]: 3.91 mL/h/kg | Cmax [2, 11]: 372 nM and 416 nM and 369 nM | T1/2 [2, 11]: 25.9 h and 30.7 h | AUC0-inf [2, 12]: 88.4 µM·h and 79.6 µM·h and 92.3 µM·h | C0 [2, 12]: 3240 nM and 5390 nM and 5200 nM | CL [2, 12]: 2.30 mL/h/kg and 1.98 mL/h/kg | T1/2 [2, 12]: 21.3 h and 22.9 h | clearance [2, 13]: 2.12 mL/h/kg | half-life [2, 13]: 23 h | clearance [2, 14]: 2.07 mL/h/kg | half-life [2, 14]: 24.7 h | half-life ([2]; male, Sprague Dawley, rat, plasma, sc, 10 nmol/kg, dose response, single subcutaneous dose 10 nmol/kg, individual animal): 30.4 h | CL/F ([2]; male, Sprague Dawley, rat, plasma, sc, 10 nmol/kg, dose response, single subcutaneous dose 10 nmol/kg, individual animal, read-out: CL/F (converted)): 3.75 mL/h/kg | Tmax ([2]; male, Sprague Dawley, rat, plasma, sc, 10 nmol/kg, dose response, single subcutaneous dose 10 nmol/kg, individual animal, read-out: Tmax): 24 h | half-life ([2]; male, Sprague Dawley, rat, plasma, sc, 10 nmol/kg, dose response, single subcutaneous dose 10 nmol/kg, mean): 31.7 h | CL/F ([2]; male, Sprague Dawley, rat, plasma, sc, 10 nmol/kg, dose response, single subcutaneous dose 10 nmol/kg, mean, read-out: CL/F (converted)): 3.63 mL/h/kg | Tmax ([2]; male, Sprague Dawley, rat, plasma, sc, 10 nmol/kg, dose response, single subcutaneous dose 10 nmol/kg, mean, read-out: Tmax): 24 h | half-life ([2]; male, Sprague Dawley, rat, plasma, sc, 30 nmol/kg, dose response, single subcutaneous dose 30 nmol/kg, individual animal): 27.4 h | CL/F ([2]; male, Sprague Dawley, rat, plasma, sc, 30 nmol/kg, dose response, single subcutaneous dose 30 nmol/kg, individual animal, read-out: CL/F (converted)): 4.07 mL/h/kg | Tmax ([2]; male, Sprague Dawley, rat, plasma, sc, 30 nmol/kg, dose response, single subcutaneous dose 30 nmol/kg, individual animal, read-out: Tmax): 24 h | half-life ([2]; male, Sprague Dawley, rat, plasma, sc, 30 nmol/kg, dose response, single subcutaneous dose 30 nmol/kg, mean): 28.4 h | CL/F ([2]; male, Sprague Dawley, rat, plasma, sc, 30 nmol/kg, dose response, single subcutaneous dose 30 nmol/kg, mean, read-out: CL/F (converted)): 3.98 mL/h/kg | Tmax ([2]; male, Sprague Dawley, rat, plasma, sc, 30 nmol/kg, dose response, single subcutaneous dose 30 nmol/kg, mean, read-out: Tmax): 24 h | half-life ([2]; male, Sprague Dawley, rat, plasma, sc, 100 nmol/kg, dose response, single subcutaneous dose 100 nmol/kg, individual animal): 28.6 h | CL/F ([2]; male, Sprague Dawley, rat, plasma, sc, 100 nmol/kg, dose response, single subcutaneous dose 100 nmol/kg, individual animal, read-out: CL/F (converted)): 3.85 mL/h/kg | Tmax ([2]; male, Sprague Dawley, rat, plasma, sc, 100 nmol/kg, dose response, single subcutaneous dose 100 nmol/kg, individual animal, read-out: Tmax): 24 h | half-life ([2]; male, Sprague Dawley, rat, plasma, sc, 100 nmol/kg, dose response, single subcutaneous dose 100 nmol/kg, mean): 28.4 h | CL/F ([2]; male, Sprague Dawley, rat, plasma, sc, 100 nmol/kg, dose response, single subcutaneous dose 100 nmol/kg, mean, read-out: CL/F (converted)): 3.89 mL/h/kg | Tmax ([2]; male, Sprague Dawley, rat, plasma, sc, 100 nmol/kg, dose response, single subcutaneous dose 100 nmol/kg, mean, read-out: Tmax): 24 h | half-life ([2]; male, Sprague Dawley, rat, plasma, sc, 183 nmol/kg, single subcutaneous dose 183 nmol/kg, individual animal): 26.2 h | CL/F ([2]; male, Sprague Dawley, rat, plasma, sc, 183 nmol/kg, single subcutaneous dose 183 nmol/kg, individual animal, read-out: CL/F (converted)): 4.75 mL/h/kg | Tmax ([2]; male, Sprague Dawley, rat, plasma, sc, 183 nmol/kg, single subcutaneous dose 183 nmol/kg, individual animal, read-out: Tmax): 24 h | half-life ([2]; male, Sprague Dawley, rat, plasma, sc, 183 nmol/kg, single subcutaneous dose 183 nmol/kg, mean): 23.8 h | CL/F ([2]; male, Sprague Dawley, rat, plasma, sc, 183 nmol/kg, single subcutaneous dose 183 nmol/kg, mean, read-out: CL/F (converted)): 5.04 mL/h/kg | Tmax ([2]; male, Sprague Dawley, rat, plasma, sc, 183 nmol/kg, single subcutaneous dose 183 nmol/kg, mean, read-out: Tmax): 32 h | AUC0-inf ([2]; rat, plasma, sc, dose response, single subcutaneous dose 10 nmol/kg, male Sprague Dawley rats, mean, read-out: AUC0-inf): 2.85 µM·h | Cmax ([2]; rat, plasma, sc, dose response, single subcutaneous dose 10 nmol/kg, male Sprague Dawley rats, mean, read-out: Cmax): 49.8 nM | AUC0-inf ([2]; rat, plasma, sc, dose response, single subcutaneous dose 30 nmol/kg, male Sprague Dawley rats, mean, read-out: AUC0-inf): 7.76 µM·h | Cmax ([2]; rat, plasma, sc, dose response, single subcutaneous dose 30 nmol/kg, male Sprague Dawley rats, mean, read-out: Cmax): 129 nM | AUC0-inf ([2]; rat, plasma, sc, dose response, single subcutaneous dose 100 nmol/kg, male Sprague Dawley rats, mean, read-out: AUC0-inf): 26.3 µM·h | Cmax ([2]; rat, plasma, sc, dose response, single subcutaneous dose 100 nmol/kg, male Sprague Dawley rats, mean, read-out: Cmax): 386 nM | AUC0-inf ([2]; rat, plasma, sc, single subcutaneous dose 183 nmol/kg, male Sprague Dawley rats, mean, read-out: AUC0-inf): 36.8 µM·h | Cmax ([2]; rat, plasma, sc, single subcutaneous dose 183 nmol/kg, male Sprague Dawley rats, mean, read-out: Cmax): 583 nM | AUC0-inf ([2]; rat, plasma, male Sprague Dawley rats, single intravenous dose 183 nmol/kg, Mean, read-out: AUC0-inf): 86.8 µM·h | C0 ([2]; rat, plasma, male Sprague Dawley rats, single intravenous dose 183 nmol/kg, Mean, read-out: C0): 4610 nM | AUC0-inf [2, 15]: 38.9 µM·h and 34.3 µM·h and 37.1 µM·h | CL/F [2, 15]: 5.39 mL/h/kg and 4.99 mL/h/kg | Cmax [2, 15]: 783 nM and 439 nM and 527 nM | T1/2 [2, 15]: 21.8 h and 23.5 h | Tmax [2, 15]: 48 h | AUC0-inf [3]: 15 µM·h | CL/F [3]: 6.76 mL/h/kg | Cmax [3]: 270 nM | Tmax [3]: 24 h | half-life [3]: 25.1 h | MAPPS Assay >10 donors with diverse MHC ([4]; donors displaying MHC-II peptides / donors tested): 1/10 | peptides displayed on MHC-II complexes ([4]; human dendritic cells from normal donors): at least one peptide cluster on MHC-II complexes in a subset of donors | immunogenicity compared with SEQ ID NO:54 ([4]; in the MAPPs assay and/or the T cell proliferation assay): substantial improvements in immunogenicity over a compound comprising SEQ ID NO:54 | MAPPS Assay >10 donors with diverse MHC ([4]; percentage of donors displaying MHC-II peptides): 10%

— US20250163119A1, “COMPOUNDS FOR THE TREATMENT OF DIABETES OR OBESITY” (Eli Lilly and Company, priority 2023, published 2025)
